Reference: patent US9757375B2, “Compounds that inhibit human DNA ligases and methods of treating cancer” (University of Maryland, Baltimore, priority 2007, dated 2017)

What was measured:
T4 DNA ligase = target: T1, T4 DNA ligase (Enterobacteria phage T4, UniProt P00970); assay: Radioactive gel-based DNA ligation assay; type: biochemical, bacteriophage T4; conditions: FIG. 2B
T1 construct: purchased NEB
T1 sequence (P00970 1-487): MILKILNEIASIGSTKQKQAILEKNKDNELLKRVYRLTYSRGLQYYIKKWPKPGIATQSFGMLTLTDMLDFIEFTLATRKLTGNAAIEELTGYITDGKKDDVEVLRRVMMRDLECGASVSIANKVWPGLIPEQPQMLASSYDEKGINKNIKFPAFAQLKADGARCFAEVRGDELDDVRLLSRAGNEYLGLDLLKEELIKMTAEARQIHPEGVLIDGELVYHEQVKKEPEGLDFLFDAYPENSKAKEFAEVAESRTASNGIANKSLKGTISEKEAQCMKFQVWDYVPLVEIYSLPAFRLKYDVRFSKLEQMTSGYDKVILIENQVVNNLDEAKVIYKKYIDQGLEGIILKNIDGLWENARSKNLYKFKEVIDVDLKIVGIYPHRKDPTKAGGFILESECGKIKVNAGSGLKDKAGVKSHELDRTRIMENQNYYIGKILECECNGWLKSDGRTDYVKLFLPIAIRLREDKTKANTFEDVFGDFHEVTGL
Experimental: A radioactive gel-based DNA ligation assay was performed as previously described (22). A 25-mer (5′-CGCCAGGGTTTTCCCAGTCACGACC-3′), and a 5′-[^32P] end-labeled 18-mer (5′-GTA AAA CGA CGG CCA GTG-3′) were annealed to a complementary 44-mer oligonucleotide, generating a linear duplex with a central nick. DNA joining reactions (30 μL) containing 0.5 pmol of labeled DNA substrate, and hLigI (0.02 pmol), hLigIIIβ (0.02 pmol), hLigIV/XRCC4 (0.1 pmol), or T4 DNA ligase (0.02 pmol) in ligation buffer were incubated in the absence or presence of ligase inhibitors at 25° C. for 30 min.
The effect of Compounds 67, 82 and 189 on DNA joining by human DNA ligases I, III and IV and T4 DNA ligase was determined. The IC50 values determined for Compounds 67, 82 and 189 using the fluorescence-based DNA joining assay (22) are shown for each of the DNA ligases. The effect of Compounds 67, 82 and 189 on DNA joining by human DNA ligases I, III and IV and T4 DNA ligase was determined using the radioactive gel-based assay (24). Representative gels of DNA ligation assays. The results of three independent experiments are shown graphically.

[1] = tested on: MCF10A, MCF7, HCT116, and HeLa cells; assay: Cell viability after 6 days on cell panel (FIG. 8); type: cell-based, human; conditions: FIG. 8, 6 days viability; MCF7 colonies, cell cycle
Experimental: FIG. 8. […] A, MCF10A (▪), MCF7 (♦), HCT116 (▴), and HeLa (upsidedown triangle) cells were plated in the absence or presence of L82 (left), L67 (middle), and L189 (right). After 6 days, cell viability was measured and is expressed as a percentage of the value obtained with untreated cells. B, MCF7 cells were plated out in the absence or presence of L82 (top) and L67 (bottom) at the indicated concentrations. After 2 weeks, colonies were stained with crystal violet. C, after serum starvation for 4 days, MCF 7 cells were returned to serum-containing media either without (▪) or with 50 μmol/L of L82 (●). The cell cycle distribution at various time intervals was determined by fluorescence-activated cell sorting. D, asynchronous populations of MCF cells were either untreated (top) or treated with L82 at 10 μmol/L (middle) and 50 μmol/L (bottom). After 3 days, tubulin and DNA were visualized by fluorescence microscopy (bars, […]).

HCT116 cells = assay: Screen for potentiation of DNA damaging agents (MMS, camptothecin, cis-platinum, 3 aminobenzamide, ionizing radiation); type: cell-based, human; conditions: with 2 Gy ionizing radiation, tick mark only
hLigIIIβ = target: T2, hLigIIIβ (Homo sapiens, UniProt P49916); assay: Radioactive gel-based DNA ligation assay; type: biochemical; conditions: grades ±, Ø (key not given)
T2 sequence (P49916 1-862 isoform P49916-4): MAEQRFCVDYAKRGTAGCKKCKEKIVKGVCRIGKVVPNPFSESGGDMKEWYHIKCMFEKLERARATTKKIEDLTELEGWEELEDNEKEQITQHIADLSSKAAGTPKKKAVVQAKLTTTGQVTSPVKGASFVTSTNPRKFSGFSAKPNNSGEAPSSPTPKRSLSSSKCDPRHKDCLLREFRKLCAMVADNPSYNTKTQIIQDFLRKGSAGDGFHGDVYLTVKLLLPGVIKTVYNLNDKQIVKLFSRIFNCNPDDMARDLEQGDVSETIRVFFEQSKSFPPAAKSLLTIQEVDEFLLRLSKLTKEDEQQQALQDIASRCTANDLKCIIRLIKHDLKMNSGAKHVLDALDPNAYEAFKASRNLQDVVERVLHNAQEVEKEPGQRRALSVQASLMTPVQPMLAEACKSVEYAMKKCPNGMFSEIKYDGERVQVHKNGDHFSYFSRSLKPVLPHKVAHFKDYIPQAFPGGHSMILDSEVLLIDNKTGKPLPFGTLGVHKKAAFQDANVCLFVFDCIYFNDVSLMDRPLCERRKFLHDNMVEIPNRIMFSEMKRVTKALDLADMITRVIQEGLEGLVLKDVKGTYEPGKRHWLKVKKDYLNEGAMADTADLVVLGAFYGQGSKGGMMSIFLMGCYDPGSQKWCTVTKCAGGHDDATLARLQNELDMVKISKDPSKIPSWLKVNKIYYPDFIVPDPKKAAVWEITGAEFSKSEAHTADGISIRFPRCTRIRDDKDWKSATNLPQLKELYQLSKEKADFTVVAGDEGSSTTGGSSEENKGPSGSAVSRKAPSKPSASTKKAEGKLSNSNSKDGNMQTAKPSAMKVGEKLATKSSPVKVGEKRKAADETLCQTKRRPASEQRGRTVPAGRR

MCF7 cells = assay: Colony forming (survival) assay; type: cell-based, human
Experimental: For survival assays, cells were plated in 6 well plates and grown either in the absence or presence of ligase inhibitors. Where indicated, either MMS (0-50 μM) was added to the medium or the cells were irradiated in a Cs-137 irradiator (0-2.5 Gy). After two weeks, colonies were stained with crystal violet (Sigma) and then counted.
To confirm that the DNA ligase inhibitors directly kill cells and potentiate cell killing by DNA damaging agents, we performed colony forming assays.
Different concentrations of Compound 184 were added to asynchronous subconfluent populations of HCT116, MCF7 and MCF10A cells. Colonies were counted after two weeks. (FIG. 6A).
Different concentrations of Compound 67 were added to asynchronous subconfluent populations of HCT116, MCF7 and MCF10A cells. After 1 hour, cultures were irradiated with 2 gray of ionizing radiation. Different concentrations of Compound 67 were added to asynchronous subconfluent populations of HCT116 and MCF10A cells in the absence or presence of MMS (50 μM). Colonies were counted after two weeks. (FIG. 6D).

Row | Compound | inhibition of DNA joining by T4 DNA ligase (T4 DNA ligase) | % growth inhibition HCT116 [2 Gy] 5-15 uM (HCT116 cells) | % activity Inhibition hLigIII gel (hLigIIIβ) | also measured
1 | O=c1[nH]ncc(N/N=C\c2ccc(O)c([N+](=O)[O-])c2)c1Cl [Compound 82] | not significantly inhibited |  |  | effect on cell viability / growth, in words [1]: cytostatic effect
2 | O=C(Cn1cnc([N+](=O)[O-])n1)N/N=C/c1ccc(O)cc1O [Compound 151] |  | ✓ | Ø | 
3 | COc1ccc(-c2cnc3c(O)nc(O)nc3n2)cc1 [Compound 190] |  |  | Ø | 
4 | O=C(c1ccc(O)cc1)c1ccccc1O [Compound 200] |  | ✓ |  | 
5 | Nc1nc(S)nc(O)c1/N=C/c1ccccc1 [Compound 189] | not significantly inhibited |  |  | 
6 | CS(=O)(=O)NNC(=O)C(=O)NNc1ccccc1 [Compound 184] |  | ✓ | Ø | cell killing (colony formation) (MCF7 cells; MCF7, compound alone, compared with MCF10A, FIG. 6A): more effective at killing
7 | C/C(O)=C1/C(=O)N(c2nc3ccccc3s2)N=C1c1ccccc1 [Compound 43] |  |  | Ø | 
8 | Cc1c(Br)cc(NCC(=O)N/N=C\c2cc([N+](=O)[O-])ccc2O)cc1Br [Compound 67] | not significantly inhibited |  |  | potentiation of killing by ionizing radiation (MCF7 cells; MCF7, 2 gray, FIG. 6D): potentiates; potentiation of killing by MMS (MCF7 cells; MCF7, MMS, FIG. 6D): potentiates
